For 34 molecules, IC50 results are on record in patent publication US7678913B2, “Ureas as factor Xa inhibitors” (Portola Pharmaceuticals, Inc., priority 2004, dated 2010).

T1 sequence (P00742 235-488 limits assumed): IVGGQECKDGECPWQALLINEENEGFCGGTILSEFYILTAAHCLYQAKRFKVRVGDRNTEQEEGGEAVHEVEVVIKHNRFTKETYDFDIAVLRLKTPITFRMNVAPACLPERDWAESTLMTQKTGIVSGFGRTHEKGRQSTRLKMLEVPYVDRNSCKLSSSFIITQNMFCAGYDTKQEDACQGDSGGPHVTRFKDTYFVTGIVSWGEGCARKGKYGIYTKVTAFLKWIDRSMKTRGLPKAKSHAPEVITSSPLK
T1 sequence (P00742 41-179 partner limits assumed): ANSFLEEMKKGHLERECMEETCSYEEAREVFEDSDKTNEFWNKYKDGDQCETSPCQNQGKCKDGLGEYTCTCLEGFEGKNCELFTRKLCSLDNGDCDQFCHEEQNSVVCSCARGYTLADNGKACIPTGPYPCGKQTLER

The test has as its target T1, human plasma protein factor Xa (Homo sapiens, UniProt P00742).
T1 construct: measure proteolytic activity of the enzyme (factor Xa); purchased Haematologic Technologies (Essex Junction, Vt.); host or cells: human plasma
In words: Factor Xa IC50 determination (cleavage of chromogenic substrate S-2765). As to conditions: fXa 1 nM, S-2765 100 μM, Tris buffered saline pH 7.4, room temperature. The format is biochemical. Put shortly:
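Human plasma factor Xa (1 nM) preincubated 5 min at room temperature with inhibitor (0.01 nM–10 μM final) in Tris-buffered saline pH 7.4 with CaCl2, BSA and 5% DMSO. S-2765 added at 100 μM; pNA release at 405 nm over 2 min; initial velocities fitted to four-parameter equation for IC50, duplicates.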
The term IC50 denotes the concentration at which inhibition is half-maximal. Low readings indicate greater potency, high ones weaker potency. In turn, `O=C(Nc1ccc(Cl)cc1)NC(C(=O)Nc1ccc(-c2cccc[n+]2[O-])cc1)c1ccccc1SC(F)(F)F` (stereo not shown) [Example 123, N-[4-(N-oxo-pyridin-2-yl)phenyl]-2-(2-trifluoromethylthiophenyl)-2-(4-chlorophenylaminocarbonylamino)-acetamide] came in with an IC50 of no more than 100 nM.
The molecule `CN1CCN=C1c1ccc(NC(=O)C(NC(=O)Nc2ccc(Cl)cc2)c2ccccc2Oc2ccccc2)cc1` (stereo not shown) [Example 124, N-[4-(1-methyl-4,5-dihydro-1H-imidazol-2-yl)phenyl]-2-(2-phenoxyphenyl)-2-(4-chlorophenylaminocarbonylamino)-acetamide] showed an IC50 of no more than 100 nM.
`O=C(Nc1ccc(Cl)cc1)NC(C(=O)Nc1ccc(-c2cccc[n+]2[O-])cc1)c1ccccc1Oc1ccccc1` (stereo not shown) [Example 125, N-[4-(N-oxo-pyridin-2-yl)phenyl]-2-(2-phenoxyphenyl)-2-(4-chlorophenylaminocarbonylamino)-acetamide] came in with an IC50 of no more than 100 nM.
For `CSc1ccccc1C(NC(=O)Nc1ccc(Cl)cc1)C(=O)Nc1ccc(-c2cccc[n+]2[O-])cc1` (stereo not shown) [Example 126, N-[4-(N-oxo-pyridin-2-yl)phenyl]-2-(2-methylthiophenyl)-2-(4-chlorophenylaminocarbonylamino)-acetamide] the value was no more than 100 nM; for `CN1CCC(N2CCN(C(=O)C(NC(=O)Nc3ccc(Cl)cc3)c3ccccc3F)CC2)CC1` (stereo not shown) [Example 127], no more than 100 nM.
For `CN1CCC(N2CCN(C(=O)C(NC(=O)Nc3ccc(Cl)cc3)c3ccccc3)CC2)CC1` (stereo not shown) [Example 128] the value was no more than 100 nM; for `C#CCC(NC(=O)Nc1ccc(Cl)cc1)C(=O)Nc1ccc(C2=NCCN2C)cc1` (stereo not shown) [Example 129, N-[4-(1-methyl-4,5-dihydro-1H-imidazol-2-yl)phenyl]-2-propargyl-2-(4-chlorophenylaminocarbonylamino)-acetamide], no more than 100 nM; for `CC#CCC(NC(=O)Nc1ccc(Cl)cc1)C(=O)Nc1ccc(C2=NCCN2C)cc1` (stereo not shown) [Example 130, N-[4-(1-methyl-4,5-dihydro-1H-imidazol-2-yl)phenyl]-2-(but-2-yn-1-yl)-2-(4-chlorophenylaminocarbonylamino)-acetamide], no more than 100 nM.
The figure for `CC#CCC(NC(=O)Nc1ccc(Cl)cc1)C(=O)Nc1ccc(-c2cccc[n+]2[O-])cc1` (stereo not shown) [Example 131, N-[4-(N-oxo-pyridin-2-yl)phenyl]-2-(but-2-yn-1-yl)-2-(4-chlorophenylaminocarbonylamino)-acetamide] is no more than 100 nM; for `C=CCC(NC(=O)Nc1ccc(Cl)cc1)C(=O)Nc1ccc(C2=NCCN2C)cc1` (stereo not shown) [Example 132, N-[4-(1-methyl-4,5-dihydro-1H-imidazol-2-yl)phenyl]-2-allyl-2-(4-chlorophenylaminocarbonylamino)-acetamide] it is no more than 100 nM; for `C=CCC(NC(=O)Nc1ccc(Cl)cc1)C(=O)Nc1ccc(-c2cccc[n+]2[O-])cc1` (stereo not shown) [Example 133, N-[4-(N-oxo-pyridin-2-yl)phenyl]-2-allyl-2-(4-chlorophenylaminocarbonylamino)-acetamide] it is no more than 100 nM.
`CN(C)C(=N)c1ccc(N2C(=O)C(NC(=O)Nc3ccc(Cl)cc3)Cc3ccccc32)cc1` (stereo not shown) [Example 134, 1-[4-(dimethylaminoimino)phenyl]-3-(4-chlorophenylaminocarbonylamino)-3,4-dihydroquinolin-2-one] displayed an IC50 of 100 to 500 nM.
The figure for `N=C(c1ccc(N2C(=O)C(NC(=O)Nc3ccc(Cl)cc3)Cc3ccccc32)cc1)N1CCCC1` (stereo not shown) [Example 135] is no less than 500 nM.
Regarding `CN1CCN=C1c1ccc(N2C(=O)C(NC(=O)Nc3ccc(Cl)cc3)Cc3ccccc32)cc1` (stereo not shown) [Example 136, 1-[4-(1-methyl-4,5-dihyrdo-1H-imidazol-2-yl)phenyl]-3-(4-chlorophenylaminocarbonylamino)-3,4-dihydroquinolin-2-one], the IC50 is no more than 100 nM.
The figure for `O=C(Nc1ccc(Cl)cc1)N[C@H](C(=O)Nc1ccc(-n2ccccc2=O)cc1)c1ccccc1` [Example 137, (2S) N-[4-(2-pyridon-1-yl)phenyl]-2-phenyl-2-(4-chlorophenylaminocarbonylamino)-acetamide] is no more than 100 nM; for `O=C(Nc1ccc(Cl)cc1)N[C@@H](C(=O)Nc1ccc(-n2ccccc2=O)cc1)c1ccccc1` [Example 138, (2R) N-[4-(2-pyridon-1-yl)phenyl]-2-phenyl-2-(4-chlorophenylaminocarbonylamino)-acetamide] it is no more than 100 nM; for `O=C(Nc1ccc(Cl)s1)N[C@H](C(=O)Nc1ccc(-n2ccccc2=O)cc1)c1ccccc1` [Example 139, (2S) N-[4-(2-pyridon-1-yl)phenyl]-2-phenyl-2-(2-chlorothiophen-5-ylaminocarbonylamino)-acetamide] it is no more than 100 nM.
For `O=C(Nc1ccc(Cl)cc1)N[C@@H](C(=O)Nc1ccc(-n2ccccc2=O)cc1F)c1ccccc1` [Example 140, (2R) N-[4-(2-pyridon-1-yl)-2-fluorophenyl]-2-phenyl-2-(4-chlorophenylaminocarbonylamino)-acetamide] the value was no more than 100 nM.
`O=C(Nc1ccc(Cl)cc1)N[C@@H](C(=O)N1CCC(N2CCCCC2=O)CC1)c1ccccc1` [Example 141, (2R) 4-(2-piperidinon-1-yl)piperidin-1-yl-2-phenyl-2-(4-chlorophenylaminocarbonylamino)-acetamide] gave an IC50 of no more than 100 nM.
For the molecule `O=C(Nc1ccc(Cl)cc1)N[C@@H](C(=O)N1CCC(N2CCOCC2=O)CC1)c1ccccc1` [Example 142, (2R) 4-(3-morpholinon-4-yl)piperidin-1-yl-2-phenyl-2-(4-chlorophenylaminocarbonylamino)-acetamide], the IC50 is no more than 100 nM.
Take `O=C(Nc1ccc(Cl)cc1)N[C@@H](C(=O)N1CCC(n2ccccc2=O)CC1)c1ccccc1` [Example 143, (2R) 4-(2-pyridon-1-yl)piperidin-1-yl-2-phenyl-2-(4-chlorophenylaminocarbonylamino)-acetamide]: the IC50 is no more than 100 nM.
With `O=C(Nc1ccc(Cl)cc1)NC(C(=O)N1CCC(N2CCOCC2=O)CC1)c1ccccc1F` (stereo not shown) [Example 144, 4-(3-morpholinon-4-yl)piperidin-1-yl-2-(2-fluorophenyl)-2-(4-chlorophenylaminocarbonylamino)-acetamide], the IC50 is no more than 100 nM.
The figure for `O=C(Nc1ccc(Cl)cc1)NC(C(=O)N1CCC(N2CCOCC2=O)CC1)c1ccccc1Cl` (stereo not shown) [Example 145, 4-(3-morpholinon-4-yl)piperidin-1-yl-2-(2-chlorophenyl)-2-(4-chlorophenylaminocarbonylamino)-acetamide] is no more than 100 nM.
The figure for `O=C(Nc1ccc(Cl)cc1)NC(C(=O)N1CCC(N2CCOCC2=O)CC1)c1ccccc1Br` (stereo not shown) [Example 146, 4-(3-morpholinon-4-yl)piperidin-1-yl-2-(2-bromophenyl)-2-(4-chlorophenylaminocarbonylamino)-acetamide] is 100 to 500 nM; for `Cc1ccccc1C(NC(=O)Nc1ccc(Cl)cc1)C(=O)N1CCC(N2CCOCC2=O)CC1` (stereo not shown) [Example 147, 4-(3-morpholinon-4-yl)piperidin-1-yl-2-(2-methylphenyl)-2-(4-chlorophenylaminocarbonylamino)-acetamide] it is 100 to 500 nM; for `COc1ccccc1C(NC(=O)Nc1ccc(Cl)cc1)C(=O)N1CCC(N2CCOCC2=O)CC1` (stereo not shown) [Example 148, 4-(3-morpholinon-4-yl)piperidin-1-yl-2-(2-methoxyphenyl)-2-(4-chlorophenylaminocarbonylamino)-acetamide] it is no more than 100 nM.
For `O=C(Nc1ccc(Cl)cc1)NC(C(=O)N1CCC(N2CCCCC2=O)CC1)c1ccccc1F` (stereo not shown) [Example 149, 4-(2-piperidinon-1-yl)piperidin-1-yl-2-(2-fluorophenyl)-2-(4-chlorophenylaminocarbonylamino)-acetamide] the value was no more than 100 nM.
Molecule `COc1ccccc1C(NC(=O)Nc1ccc(Cl)cc1)C(=O)N1CCC(N2CCCCC2=O)CC1` (stereo not shown) [Example 150, 4-(2-piperidinon-1-yl)piperidin-1-yl-2-(2-methoxyphenyl)-2-(4-chlorophenylaminocarbonylamino)-acetamide] yielded an IC50 of no more than 100 nM.
For `COc1ccccc1C(NC(=O)Nc1ccc(Cl)cc1)C(=O)N1CCC(N2CCN(C)CC2=O)CC1` (stereo not shown) [Example 151, 4-(4-methyl-2-piperazinon-1-yl)piperidin-1-yl-2-(2-methoxyphenyl)-2-(4-chlorophenylaminocarbonylamino)-acetamide] the value was no less than 500 nM; for `COc1ccccc1C(NC(=O)Nc1ccc(Cl)cc1)C(=O)N1CCN(C2CCCNCC2)CC1` (stereo not shown) [Example 152, 4-(homopiperidin-4-yl)piperazin-1-yl-2-(2-methoxyphenyl)-2-(4-chlorophenylaminocarbonylamino)-acetamide], no more than 100 nM.
For `COc1ccccc1C(NC(=O)Nc1ccc(Cl)cc1)C(=O)N1CCN(C2CCCN(C)CC2)CC1` (stereo not shown) [Example 153, 4-(1-methylhomopiperidin-4-yl)piperazin-1-yl-2-(2-methoxyphenyl)-2-(4-chlorophenylaminocarbonylamino)-acetamide] the value was no more than 100 nM; for `CN1CCCN(C2CCN(C(=O)[C@H](NC(=O)Nc3ccc(Cl)cc3)c3ccccc3)CC2)CC1` [Example 154, (2R) 4-(4-methylhomopiperazin-1-yl)piperidin-1-yl-2-phenyl-2-(4-chlorophenylaminocarbonylamino)-acetamide], 100 to 500 nM; for `CN1CCC(C2CCN(C(=O)[C@H](NC(=O)Nc3ccc(Cl)cc3)c3ccccc3)CC2)CC1` [Example 155, (2R) 4-(1-methylpiperidin-4-yl)piperidin-1-yl-2-phenyl-2-(4-chlorophenylaminocarbonylamino)-acetamide], no more than 100 nM.
The figure for `CN1CCC(N2CCCN(C(=O)[C@H](NC(=O)Nc3ccc(Cl)cc3)c3ccccc3)CC2)CC1` [Example 156, (2R) 4-(1-methylpiperidin-4-yl)homopiperazin-1-yl-2-phenyl-2-(4-chlorophenylaminocarbonylamino)-acetamide] is no less than 500 nM.
